The results in this text go back to patent publication US20070032522A1, “Antiviral agents” (priority 2005, published 2007).

The assay deals with HCV replicon-containing cells (Huh7/Clone A). Put plainly: HCV Replicon Assay. It counts as cell-based. The settings on record: Hepatitis C virus, Huh-7, 48 hours incubation, HCV replicon RNA by RT-qPCR normalized to total RNA, read-out: IC50 of inhibition of HCV replication. From the text: The HCV replicon assay is a cell-culture system that mimics in vivo HCV replication and provides a system to study HCV replication in vitro. It was created by transfecting cloned viral RNA derived from a consensus HCV genomic sequence into human Huh7 hepatoma cells that are semi-permissive for viral RNA production (Lohmann V., Korner F., Koch J.-O., Herian U., Theilmann L. and Bartenschlager R. (1999). Replication of subgenomic Hepatitis C virus RNAs in a hepatoma cell line. Science 285, 110-113 and Blight K. J., Kolykhalov A. A. and Rice C. M. (2000). Efficient initiation of HCV RNA Replication in cell culture. Science 290, 972-1974). […] Replicon-containing cells autonomously and persistently replicate HCV RNA that can be measured quantitatively by real-time qPCR. Therefore, the replicon system facilitates quantitative assessment of anti-viral activity by monitoring changes in HCV RNA replication in a cell-based assay. […]
Total RNA eluted in 130 μl of RNase-freed H2O was quantitated by the RiboGreen Assay according to the supplier's protocol (Molecular Probe). […] RNA samples in the black microplate were mixed with 95 μl of diluted RiboGreen reagent (1:250 dilution in TE buffer) and sample fluorescence was measured using a fluorescence microplate reader at standard fluorescein wavelengths (excitation ˜480 nm, emission ˜520 nm). […]

For orientation: IC50 means the concentration that gives 50% inhibition.

Consider `O=C(OCc1ccc(Cl)cc1)c1cn(Cc2ccc(Cl)cc2)c2cc(N3CCNCC3)c(F)cc2c1=O` [Compound 1, 1-(4-chlorobenzyl)-6-fluoro-4-oxo-7-piperazin-1-yl-1,4-dihydro-quinoline-3-carboxylic acid 4-chlorobenzyl ester], for which the half-maximal inhibitory concentration (IC50) was under 5 µM.
